Legend:
[1] = test system: SF268-MCAT_Luc_dox-i-shYAPLevy (Clone 13) cells; assay: Proliferation assay (resazurin/AlamarBlue), SF268; assay type: cell-based; settings: Homo sapiens, SF-268; SF268, 72 hours
From the text: (§1) NCI-H2052 mesothelioma cells (RRID: CVCL_1518) bearing Hippo-pathway inactivating mutations upstream of YAP (homozygous deletion of LATS2 and mutation of NF2) were obtained from ATCC (American Type Culture Collection), while SF268 glioma cells (RRID: CVCL_1689) overexpressing YAP due to genomic amplification were obtained from the NCI (National Cancer Institute). MKN-45 gastric adenocarcinoma cells (RRID: CVCL_0434) genomically deleted for YAP were obtained from the JCRB (Japanese Collection of Research Bioresources) Cell Bank.
(§2) Stock solutions of compounds were prepared at a concentration of 10 mM in DMSO and stored at 4° C. Where necessary to afford a full dose-response curve, the stock solutions were pre-diluted in DMSO to 1′000-fold the desired reduced start concentration. On the day after cell seeding, eleven 2-fold serial dilutions of each compound were dispensed directly into the cell assay plates using a HP 300D non-contact Digital Dispenser (TECAN). The final concentration of DMSO was normalized to 0.1% in all wells.
(§3) After incubation for 72 hours at 37° C., compound-mediated modulation of cell viability was quantified as follows. […] To enable differentiation of cytotoxic from cytostatic compound effects, the number of viable cells on the day of compound addition (day 0) was assessed in a separate cell plate and used to assess the extent of cell viability suppression as described in the following section.
(§4) For data analysis, the assay background value determined in wells containing medium, but no cells, was subtracted from all data points.
(§5) The extent of growth inhibition and potential cell kill was assessed by comparing the resorufin levels in compound-treated cells with those present at the time of compound addition. To this end, the following conditional concept was programmatically applied in HELIOS to calculate % growth (% G) for each compound-treated well: % G=(T−V0)/V0))*100 when T<V0, and % G=(T−V0)/(V−V0)))*100 when T≥V0, where V0 is the viability level at time of compound addition, while V and T represent vehicle-control and compound-treated viability levels, respectively, at the end of the compound incubation. 100%, 0% and −100% signify absence of growth inhibition, growth stasis, and complete cell kill, respectively. Compound concentrations leading to half-maximal growth inhibition (GI50) and residual cell viability at the highest tested compound concentration (Data(cmax), expressed in percent) were routinely calculated.

[2] = test system: YAP-dependent transcription in SF268-MCAT_Luc_dox-i-shYAPLevy (Clone 13) cells; assay: YAP reporter gene activity assay (MCAT-Luc), SF268; assay type: cell-based; settings: Homo sapiens, SF-268; SF268 MCAT_Luc, 24 hrs
[3] = target: Avi-humanTEAD4^217-434 / Cy5 labeled humanYAP^60-100 (Homo sapiens (Human), UniProt Q15561); assay: In-vitro biochemical TR-FRET assay (TEAD4/YAP); assay type: binding; settings: 1 h at room temperature
Protocol: N-terminus Cy5 labeled humanYAP^60-100 (20 nM) was then added to this preparation. Compounds were dissolved at 10 mM in 100% DMSO and serial dilutions were made in 100% DMSO. The diluted compound solutions were incubated in white 384-well plates (Greiner Bio-One) for 1 h at room temperature with the above described mix. The final DMSO concentration present in the assay was 1%. […] The IC50 values were estimated by fitting the data by nonlinear fit regression (GraphPad Prism).

MKN-45/Ubc-luc cells = assay: Proliferation assay (resazurin/AlamarBlue), MKN-45; assay type: cell-based; settings: Homo sapiens; MKN-45, 72 hours
From the text: as §1
As a specificity control, MKN-45 cells were stably transduced with a Ubc-Luc reporter construct, in which constitutive expression of firefly luciferase is driven by the promoter of the ubiquitin C housekeeping gene.
as §2, §3, §4, §5

[4] = test system: MKN-45/Ubc-luc cells (unspecific inhibition of luciferase expression or activity); assay: Reporter gene assay specificity control (Ubc-Luc), MKN-45; assay type: cell-based; settings: Homo sapiens; MKN-45/Ubc-luc specificity control, 24 hrs
From the text: as §1
As a specificity control, MKN-45 cells were stably transduced with a Ubc-Luc reporter construct, in which constitutive expression of firefly luciferase is driven by the promoter of the ubiquitin C housekeeping gene. The resulting cell line, MKN-45/Ubc-luc, was selected and maintained in growth medium (RPMI 1640 (Amimed Cat #1-41F01-I), 2 mM L-Glutamine (Amimed Cat #5-10K50-H), 10% fetal calf serum (Amimed Cat #2-01F30-I Lot K08815P), 1% MEM Non-essential amino acids (Amimed Cat #5-13K00-H), 1× Penicillin/Streptomycin (Amimed Cat #4-01F00-H)) containing 1 μg/ml blasticidin (Gibco Cat #A11139-03).
as §2
The ability of compounds to inhibit YAP-dependent transcription was assessed in NCI-H2052 Tet-On shYAP_2371 pLenti6 MCAT_Luc and SF268-MCAT_Luc, dox-i-shYAPLevy (Clone 13) cells, while specificity (lack of unspecific inhibition of luciferase expression or activity) was assessed in MKN-45/Ubc-luc cells. The individual cell lines were seeded at 2′500 cells/20 μl/well into white-wall, clear-bottom 384-well plates (Greiner, Cat #781098) and incubated over night at 37° C. prior to addition of serial compound dilutions as described above. Following incubation for 24 hrs at 37° C., compound-mediated modulation of reporter-gene activity was quantified 5 min after addition 20 μL […] BrightGlo (Promega Cat #E2620), by measuring luminescence intensity on a multi-mode plate-reader (TECAN) with an integration time of 100 ms.
as §4

[5] = test system: YAP-dependent transcription in NCI-H2052 Tet-On shYAP_2371 pLenti6 MCAT_Luc cells; assay: YAP reporter gene activity assay (MCAT-Luc), NCI-H2052; assay type: cell-based; settings: Homo sapiens, 24 hrs
[6] = test system: NCI-H2052 Tet-On shYAP_2371 pLenti6 MCAT_Luc cells; assay: Proliferation assay (resazurin/AlamarBlue), NCI-H2052; assay type: cell-based; settings: Homo sapiens; NCI-H2052, 72 hours
From the text: as §1, §2, §3, §4, §5

Sequence of Avi-humanTEAD4^217-434 / Cy5 labeled humanYAP^60-100 (Q15561 217-434): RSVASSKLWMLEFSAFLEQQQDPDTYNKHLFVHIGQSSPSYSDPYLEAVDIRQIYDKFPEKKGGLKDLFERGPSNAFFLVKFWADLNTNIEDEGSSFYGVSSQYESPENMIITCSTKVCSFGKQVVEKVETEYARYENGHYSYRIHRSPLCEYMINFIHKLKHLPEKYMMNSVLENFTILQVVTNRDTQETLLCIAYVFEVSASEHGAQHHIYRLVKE

Row | Structure (SMILES) | GI50 [1] | IC50 [2] | IC50 [3] | GI50 (MKN-45/Ubc-luc cells) | IC50 [4] | IC50 [5] | GI50 [6]
1 | COc1ccc(C(=O)NCCCCCn2cc(-c3ccc4c(c3)CN(C3CCC(=O)NC3=O)C4=O)nn2)c(-c2c(Cl)c(F)cc3c2C[C@@](CN)(c2ccccc2)O3)c1F (stereo partly drawn) [Example 37, 2-((2S,4S)-2-(aminomethyl)-5-chloro-6-fluoro-2-phenyl-2,3-dihydrobenzofuran-4-yl)-N-(5-(4-(2-(2,6-dioxopiperidin-3-yl)-1-oxoisoindolin-5-yl)-1H-1,2,3-triazol-1-yl)pentyl)-3-fluoro-4-methoxybenzamide] | 14900 nM | 420 nM | 120 nM | 12.5 µM | 15.9 µM | 3350 nM | 6050 nM
2 | CNC(=O)c1cnc(OCCOCCOCCn2cc(-c3ccc4c(c3)CN(C3CCC(=O)NC3=O)C4=O)nn2)c(F)c1-c1c(Cl)c(F)cc2c1C[C@](c1ccccc1)([C@@H]1CCCN1)O2 (stereo partly drawn) [Example 33, 4-((2S,4S)-5-chloro-6-fluoro-2-phenyl-2-((S)-pyrrolidin-2-yl)-2,3-dihydrobenzofuran-4-yl)-6-(2-(2-(2-(4-(2-(2,6-dioxopiperidin-3-yl)-1-oxoisoindolin-5-yl)-1H-1,2,3-triazol-1-yl)ethoxy)ethoxy)ethoxy)-5-fluoro-N-methylnicotinamide] | > 20000 nM | 1340 nM | 94 nM | > 20 µM | > 20 µM | 3140 nM | 4400 nM
3 | COc1ccc(C(N)=O)c(-c2c(Cl)c(F)cc3c2[C@H](C)[C@@](CN[C@H]2CC[C@H](C(=O)N4CCC(CC5CCN(C(=O)COc6ccc(F)c(N7CCC(=O)NC7=O)c6)CC5)CC4)CC2)(c2ccccc2)O3)c1F (atropisomer, axis not shown) [Example 29, 2-((2S,3S,4S)-5-chloro-2-((((1r,4S)-4-(4-((1-(2-(3-(2,4-dioxotetrahydropyrimidin-1(2H)-yl)-4-fluorophenoxy)acetyl)piperidin-4-yl)methyl)piperidine-1-carbonyl)cyclohexyl)amino)methyl)-6-fluoro-3-methyl-2-phenyl-2,3-dihydrobenzofuran-4-yl)-3-fluoro-4-methoxybenzamide] | 17 nM | 0.64 nM | 3.3 nM | > 0.2 µM | > 2 µM | 3.8 nM | 13 nM
4 | COc1ccc(C(=O)NCCCCCc2cccc3c2CN(C2CCC(=O)NC2=O)C3=O)c(-c2c(Cl)c(F)cc3c2C[C@@](CN)(c2ccccc2)O3)c1F (stereo partly drawn) [Example 36, 2-((2S,4S)-2-(aminomethyl)-5-chloro-6-fluoro-2-phenyl-2,3-dihydrobenzofuran-4-yl)-N-(5-(2-(2,6-dioxopiperidin-3-yl)-1-oxoisoindolin-4-yl)pentyl)-3-fluoro-4-methoxybenzamide] | 8420 nM | 9.3 nM | 92 nM | 8.76 µM | 8.76 µM | 24 nM | 160 nM
5 | COc1ccc(C(N)=O)c(-c2c(Cl)c(F)cc3c2[C@H](C)[C@@](CN[C@H]2CC[C@H](C(=O)N4CCC(CC5CCN(C(=O)COc6ccc(Cl)c(N7CCC(=O)NC7=O)c6)CC5)CC4)CC2)(c2ccccc2)O3)c1F (atropisomer, axis not shown) [Example 28, 2-((2S,3S,4S)-5-chloro-2-((((1r,4S)-4-(4-((1-(2-(4-chloro-3-(2,4-dioxotetrahydropyrimidin-1(2H)-yl)phenoxy)acetyl)piperidin-4-yl)methyl)piperidine-1-carbonyl)cyclohexyl)amino)methyl)-6-fluoro-3-methyl-2-phenyl-2,3-dihydrobenzofuran-4-yl)-3-fluoro-4-methoxybenzamide] | 31 nM | 0.92 nM | 2.7 nM | > 2 µM | > 2 µM | 4.4 nM | 16 nM
6 | COc1ccc(C(=O)N2CCC(CCC3CCN(C(=O)[C@H]4CC[C@H](NC[C@]5(c6ccccc6)Oc6cc(F)c(Cl)c(-c7c(C(N)=O)ccc(OC)c7F)c6[C@@H]5C)CC4)CC3)CC2)cc1N1CCC(=O)NC1=O (atropisomer, axis not shown) [Example 27, 2-((2S,3S,4S)-5-chloro-2-((((1r,4S)-4-(4-(2-(1-(3-(2,4-dioxotetrahydropyrimidin-1(2H)-yl)-4-methoxybenzoyl)piperidin-4-yl)ethyl)piperidine-1-carbonyl)cyclohexyl)amino)methyl)-6-fluoro-3-methyl-2-phenyl-2,3-dihydrobenzofuran-4-yl)-3-fluoro-4-methoxybenzamide] | 5 nM | 0.17 nM | 4 nM | > 2 µM | > 2 µM | 0.66 nM | 3.8 nM
7 | COc1ccc(OCC(=O)N2CCC(CC3CCN(C(=O)[C@H]4CC[C@H](NC[C@]5(c6ccccc6)Oc6cc(F)c(Cl)c(-c7c(C(N)=O)ccc(OC)c7F)c6[C@@H]5C)CC4)CC3)CC2)cc1N1CCC(=O)NC1=O (atropisomer, axis not shown) [Example 30, 2-((2S,3S,4S)-5-chloro-2-((((1r,4S)-4-(4-((1-(2-(3-(2,4-dioxotetrahydropyrimidin-1(2H)-yl)-4-methoxyphenoxy)acetyl)piperidin-4-yl)methyl)piperidine-1-carbonyl)cyclohexyl)amino)methyl)-6-fluoro-3-methyl-2-phenyl-2,3-dihydrobenzofuran-4-yl)-3-fluoro-4-methoxybenzamide] | 35 nM | 1.1 nM | 2.6 nM | > 0.2 µM | > 2 µM | 6.9 nM | 27 nM
8 | CNC(=O)c1cnc(OCCOCCOCCn2cc(-c3cccc(N4CCC(=O)NC4=O)c3)nn2)c(F)c1-c1c(Cl)c(F)cc2c1C[C@](c1ccccc1)([C@@H]1CCCN1)O2 (atropisomer, axis not shown) [Example 34, 4-((2S,4S)-5-chloro-6-fluoro-2-phenyl-2-((S)-pyrrolidin-2-yl)-2,3-dihydrobenzofuran-4-yl)-6-(2-(2-(2-(4-(3-(2,4-dioxotetrahydropyrimidin-1(2H)-yl)phenyl)-1H-1,2,3-triazol-1-yl)ethoxy)ethoxy)ethoxy)-5-fluoro-N-methylnicotinamide] | 19300 nM | 3530 nM | 6.9 nM | > 20 µM | > 20 µM | 2800 nM | 2270 nM
